Results as given in ChEMBL document CHEMBL1201862, “PubChem BioAssay data set” (2004).
“And” between values parts separate entries of the source, which are not always exact repeats. Equal values may be shown once.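 Tested at 5 concentrations; 48 h exposure; 96-well plates; endpoints linearly interpolated, else capped at highest concentration. Here, GI50 denotes the concentration required for 50% inhibition of growth.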 The source made the active and inactive calls. Cut-off read from the data, not from the text of the source: active = GI50 up to about 1.1 µM and inactive = higher.

Tests used:
Test in all cases: inhibition of tumour cell growth, NCI panel, 48 h
[1] = test system: A498
[2] = test system: A549
[3] = test system: COLO 205
[4] = test system: EKVX
[5] = test system: HCT-15
[6] = test system: Hs-578T
[7] = test system: MDA-MB-231
[8] = test system: NCI-H460
[9] = test system: OVCAR-5
[10] = test system: OVCAR-8
[11] = test system: RPMI-8226
[12] = test system: SF-268
[13] = test system: SF-539
[14] = test system: SK-MEL-28
[15] = test system: SNB-75
[16] = test system: TK-10
[17] = test system: UACC-257
[18] = test system: UO-31
[19] = test system: NCI/ADR-RES

## CC1=C(C(=O)OC(C)(C)C)C(c2ccc([N+](=O)[O-])cc2)C(C(=O)OC(C)(C)C)=C(C)N1
[1]
  GI50: 22.8 µM (inactive)
[2]
  GI50: 24.9 µM (inactive)
[3]
  GI50: 22.6 µM (inactive)
[4]
  GI50: 18.5 µM (inactive)
[5]
  GI50: 36.5 µM
[6]
  GI50: 20.2 µM (inactive)
[7]
  GI50: 22.2 µM (inactive)
[8]
  GI50: 22.2 µM (inactive)
[9]
  GI50: 19.1 µM (inactive)
[10]
  GI50: 20.4 µM (inactive)
[11]
  GI50: 17 µM (inactive)
[12]
  GI50: 21.7 µM (inactive)
[13]
  GI50: 19.8 µM (inactive)
[14]
  GI50: 20.1 µM (inactive)
[15]
  GI50: 24.1 µM (inactive)
[16]
  GI50: 20.1 µM (inactive)
[17]
  GI50: 18.8 µM (inactive)
[18]
  GI50: 19.4 µM (inactive)

## N#CC(C(=O)CCCC(=O)Nc1ccc(Cl)cc1Cl)c1ccccc1 (stereo not given)
[2]
  GI50: > 100 µM (inactive)
[3]
  GI50: > 100 µM (inactive)
[4]
  GI50: > 100 µM (inactive)
[5]
  GI50: > 100 µM
[8]
  GI50: > 100 µM (inactive)
[9]
  GI50: > 100 µM (inactive)
[10]
  GI50: > 100 µM (inactive)
[12]
  GI50: > 100 µM (inactive)
[13]
  GI50: > 100 µM (inactive)
[14]
  GI50: > 100 µM (inactive)
[16]
  GI50: > 100 µM (inactive)
[17]
  GI50: > 100 µM (inactive)
[18]
  GI50: > 100 µM (inactive)

## CC1OC(OC2C(OC(=O)[C@]34CCC(C)(C)C[C@H]3C3=CC[C@@H]5[C@@]6(C)CC[C@H](OC7OC(C(=O)O)C(O)C(O)C7O)C(C)(C)[C@@H]6CC[C@@]5(C)[C@]3(C)C[C@H]4O)OCC(O)C2O)C(O)C(O)C1OC1OCC(O)C(O)C1O (stereo not given in full)
[1]
  GI50: 2.54 µM (inactive) and 1.72 µM (inactive)
[3]
  GI50: 3.64 µM (inactive) and 2.32 µM (inactive)
[5]
  GI50: 17.1 µM and 17.3 µM
[6]
  GI50: 19.8 µM (inactive) and 21.3 µM (inactive)
[8]
  GI50: 22 µM (inactive) and 17 µM (inactive)
[9]
  GI50: 10.5 µM (inactive) and 14.9 µM (inactive)
[11]
  GI50: 12.1 µM (inactive) and 16.8 µM (inactive)
[12]
  GI50: 11.6 µM (inactive) and 19.3 µM (inactive)
[15]
  GI50: 15.9 µM (inactive) and 16.9 µM (inactive)
[17]
  GI50: 16.8 µM (inactive) and 16.4 µM (inactive)
[18]
  GI50: 7.29 µM (inactive) and 11.6 µM (inactive)

## NC1=Nc2ccccc2Sc2cccc(F)c21
[1]
  GI50: 34.4 µM (inactive)
[2]
  GI50: 57.5 µM (inactive)
[3]
  GI50: 61.7 µM (inactive)
[4]
  GI50: 50.9 µM (inactive)
[5]
  GI50: > 100 µM
[7]
  GI50: > 100 µM (inactive)
[8]
  GI50: > 100 µM (inactive)
[19]
  GI50: 43.7 µM (inactive)
[9]
  GI50: > 100 µM (inactive)
[10]
  GI50: > 100 µM (inactive)
[11]
  GI50: 36 µM (inactive)
[12]
  GI50: > 100 µM (inactive)
[13]
  GI50: > 100 µM (inactive)
[14]
  GI50: > 100 µM (inactive)
[15]
  GI50: 46.5 µM (inactive)
[16]
  GI50: > 100 µM (inactive)
[17]
  GI50: 46.3 µM (inactive)
[18]
  GI50: 84.5 µM (inactive)

## Cc1cc(OC(=O)Nc2ccc(Cl)cc2)ccc1C(=S)Nc1ccccc1
[1]
  GI50: 96.6 µM (inactive)
[2]
  GI50: 50.2 µM (inactive)
[3]
  GI50: 40.6 µM (inactive)
[4]
  GI50: 60.3 µM (inactive)
[5]
  GI50: 68.1 µM
[6]
  GI50: 91 µM (inactive)
[8]
  GI50: 18.5 µM (inactive)
[19]
  GI50: 48.1 µM (inactive)
[9]
  GI50: 57 µM (inactive)
[10]
  GI50: > 100 µM (inactive)
[11]
  GI50: > 100 µM (inactive)
[12]
  GI50: 47.9 µM (inactive)
[13]
  GI50: > 100 µM (inactive)
[14]
  GI50: 71.1 µM (inactive)
[15]
  GI50: 49.9 µM (inactive)
[17]
  GI50: 23.2 µM (inactive)
[18]
  GI50: 73.5 µM (inactive)

## Cc1ccccc1NC(=O)Cc1csc(N/N=C2\NC(=O)/C(=C/c3cccc([N+](=O)[O-])c3)S2)n1
[2]
  GI50: 16.7 µM (inactive)
[3]
  GI50: 34.2 µM (inactive)
[4]
  GI50: 13.5 µM (inactive)
[5]
  GI50: 15.8 µM
[7]
  GI50: 21.7 µM (inactive)
[8]
  GI50: 15.6 µM (inactive)
[19]
  GI50: 31.3 µM (inactive)
[9]
  GI50: 22.6 µM (inactive)
[10]
  GI50: 31.8 µM (inactive)
[13]
  GI50: 17.1 µM (inactive)
[14]
  GI50: 19.1 µM (inactive)
[15]
  GI50: 13.1 µM (inactive)
[16]
  GI50: 18.9 µM (inactive)
[17]
  GI50: 20.3 µM (inactive)
[18]
  GI50: 13.1 µM (inactive)

## CCc1cccc(CC)c1Nc1nc(-c2ccccc2-c2ccccc2)cs1
[1]
  GI50: > 100 µM (inactive)
[2]
  GI50: > 100 µM (inactive)
[3]
  GI50: 66.5 µM (inactive)
[4]
  GI50: > 100 µM (inactive)
[5]
  GI50: 94.2 µM
[6]
  GI50: 70.6 µM (inactive)
[7]
  GI50: > 100 µM (inactive)
[8]
  GI50: 65.3 µM (inactive)
[9]
  GI50: > 100 µM (inactive)
[11]
  GI50: 30.3 µM (inactive)
[12]
  GI50: > 100 µM (inactive)
[13]
  GI50: > 100 µM (inactive)
[14]
  GI50: > 100 µM (inactive)
[15]
  GI50: 29.5 µM (inactive)
[16]
  GI50: 82.2 µM (inactive)
[17]
  GI50: > 100 µM (inactive)
[18]
  GI50: 64.4 µM (inactive)

## O=C(NCCNCCNC(=O)C(F)(F)F)C(F)(F)F
[2]
  GI50: > 100 µM (inactive)
[3]
  GI50: > 100 µM (inactive)
[4]
  GI50: > 100 µM (inactive)
[5]
  GI50: > 100 µM
[6]
  GI50: > 100 µM (inactive)
[7]
  GI50: > 100 µM (inactive)
[19]
  GI50: > 100 µM (inactive)
[9]
  GI50: > 100 µM (inactive)
[10]
  GI50: > 100 µM (inactive)
[11]
  GI50: > 100 µM (inactive)
[12]
  GI50: > 100 µM (inactive)
[14]
  GI50: > 100 µM (inactive)
[16]
  GI50: > 100 µM (inactive)
[17]
  GI50: > 100 µM (inactive)
[18]
  GI50: > 100 µM (inactive)

## COC(CN1C=C(Sc2ccccc2)CC1)OC
[1]
  GI50: 48.2 µM (inactive)
[2]
  GI50: 30.8 µM (inactive)
[3]
  GI50: 22.6 µM (inactive)
[4]
  GI50: 43.3 µM (inactive)
[5]
  GI50: 37.7 µM
[8]
  GI50: 31.7 µM (inactive)
[9]
  GI50: 49.2 µM (inactive)
[10]
  GI50: 29.6 µM (inactive)
[11]
  GI50: 21.7 µM (inactive)
[12]
  GI50: 29.7 µM (inactive)
[13]
  GI50: 26.4 µM (inactive)
[14]
  GI50: 31 µM (inactive)
[15]
  GI50: 19 µM (inactive)
[16]
  GI50: 32.7 µM (inactive)
[17]
  GI50: 34.8 µM (inactive)
[18]
  GI50: 29.9 µM (inactive)

## CCCSc1ccc2[nH]c(/N=C/c3ccccc3)cc2c1
[1]
  GI50: 28.8 µM (inactive)
[3]
  GI50: 19.3 µM (inactive)
[4]
  GI50: 26.9 µM (inactive)
[5]
  GI50: 29 µM
[6]
  GI50: 27.9 µM (inactive)
[19]
  GI50: 21.9 µM (inactive)
[9]
  GI50: 40.1 µM (inactive)
[10]
  GI50: 23.3 µM (inactive)
[11]
  GI50: 14.8 µM (inactive)
[12]
  GI50: 19.7 µM (inactive)
[13]
  GI50: 20.5 µM (inactive)
[14]
  GI50: 23.7 µM (inactive)
[15]
  GI50: 20.5 µM (inactive)
[17]
  GI50: 19.7 µM (inactive)
[18]
  GI50: 30.3 µM (inactive)

## CC[C@H]1C=CCC[C@@]2(C[C@@H]3CC[C@H]4[C@@H](C(=O)OCCCCCCCCCCCCCCCC(=O)N(CCCN)C[C@@H](O)CCN)[C@@]5(CCC[C@@H](C)O5)NC(=[N+]34)N2)O1
[1]
  GI50: 3.01 µM (inactive)
[2]
  GI50: 1.77 µM (inactive)
[3]
  GI50: 1.83 µM (inactive)
[4]
  GI50: 1.76 µM (inactive)
[5]
  GI50: > 10 µM
[6]
  GI50: 1.83 µM (inactive)
[8]
  GI50: 1.74 µM (inactive)
[19]
  GI50: > 10 µM (inactive)
[9]
  GI50: 1.63 µM (inactive)
[10]
  GI50: 2.36 µM (inactive)
[11]
  GI50: 1.07 µM (active)
[12]
  GI50: 1.93 µM (inactive)
[13]
  GI50: 1.4 µM (inactive)
[14]
  GI50: 1.36 µM (inactive)
[16]
  GI50: 1.58 µM (inactive)
[17]
  GI50: 1.75 µM (inactive)
[18]
  GI50: 9.18 µM (inactive)

## CC1(C)CCC2(C(=O)OC3OC(CO)C(O)C(O)C3O)CCC3(C)C(=CCC4C5(C)CCC(OC6OC(CO)C(O)C(O)C6O)C(C)(C)C5CCC43C)C2C1 (stereo not given)
[1]
  GI50: > 25 µM (inactive)
[2]
  GI50: > 25 µM (inactive)
[3]
  GI50: 8.04 µM (inactive)
[4]
  GI50: > 25 µM (inactive)
[5]
  GI50: > 25 µM
[6]
  GI50: 10.7 µM (inactive)
[7]
  GI50: 9.98 µM (inactive)
[8]
  GI50: 6.59 µM (inactive)
[9]
  GI50: 24.1 µM (inactive)
[10]
  GI50: 15.8 µM (inactive)
[11]
  GI50: 4.18 µM (inactive)
[12]
  GI50: 6.93 µM (inactive)
[13]
  GI50: 5.4 µM (inactive)
[14]
  GI50: 6.93 µM (inactive)
[15]
  GI50: 11.2 µM (inactive)
[16]
  GI50: > 25 µM (inactive)
[17]
  GI50: 16.9 µM (inactive)
[18]
  GI50: > 25 µM (inactive)
